From the METLIN SMRT retention time set (Domingo-Almenara et al. 2019)

Assay: gradient 5% acetonitrile 3 min, to 50% in 2 min, to 85% in 15 min, held 3 min, 100 µL/min
Settings: column: Zorbax Extend-C18 2.1 x 50 mm; eluents: water / acetonitrile, 0.1% formic acid
Method in brief: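 Mixtures of ~100 pure standards were chromatographed on a Zorbax Extend-C18 column (2.1 × 50 mm, 1.8 μm) at 100 μL/min using water and acetonitrile, each with 0.1% formic acid. Detection used a quadrupole time-of-flight mass spectrometer in positive and negative ionization mode, and data collection spanned 3 months. Retention time was obtained from adduct peaks picked computationally and each checked manually.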

SMILES | RP-LC retention time [s]
CNC(=O)C1CCN(C(=O)Nc2ccc(NC(=O)Nc3ccc(C)cc3C)cc2)CC1 | 673
COC(=O)c1ccccc1NC(=O)c1c(O)c2cccnc2n(-c2ccc(F)cc2)c1=O | 1180
O=C(CSc1ncnc2c1[nH]c1ccccc12)N1CCc2ccccc2C1 | 842
O=C(NCc1ccc(Cl)cc1)C1CCN(C(=O)c2cc3ccsc3[nH]2)CC1 | 797
COC(=O)Cn1c(C)cc(=O)n2nc(-c3ccc(Cl)cc3)nc12 | 793
Cc1ccc(-n2ncc3c(NCCN(C)C)ncnc32)cc1Cl | 669
Oc1cccc(-c2nc3cnc(Br)cn3c2Nc2ccc3c(c2)OCCO3)c1 | 794
Cc1oc(C2CCN(S(=O)(=O)c3ccccc3F)CC2)nc1C(=O)N1CCCC1 | 886
O=C(/C=C\c1ccccc1)Nc1ccc(-c2cn3cccnc3n2)cc1 | 683
Cn1cccc1-c1cc2n(n1)CCCN2C(=O)CCC(=O)NCc1ccc(F)cc1 | 717
CNC1(C)[C@H]2CC[C@H](C2)C1(C)C (stereo partly specified) | 606
Cc1ccccc1-c1nc2ccccc2n1CC(N)=O | 616
CCc1nc2cc(-c3noc(-c4ccc(NC(C)=O)cc4)n3)ccc2o1 | 925
Cc1ccc(NC(=O)Nc2c(-c3ccc(F)cc3)nc3ccccn23)cc1 | 692
Cn1cccc1C(=O)C(=O)Nc1cccc2c1CCCC2 | 928
c1cc(-c2noc(C3CCC3)n2)cc(N2CCOCC2)n1 | 804
O=S(=O)(c1ccc2c(c1)-c1oncc1CO2)N1CCN(c2ccc(F)cc2)CC1 | 1040
CCn1cc(-c2nc(CC(=O)N3CCN(c4ccccc4F)CC3)cs2)c2cccnc21 | 976
CNC(=O)c1cc(-c2cccc(OC)c2)nc2ccccc12 | 800
COc1ccc(Cl)cc1NC(=O)Nc1ccc2c(c1)C(=O)NCC2 | 748
CCOc1ccc(-c2noc(Cc3nc(-c4ccc(C)cc4)cs3)n2)cc1 | 1320
CC1CC(=O)Nc2ccccc2N1C(=O)COc1ccc(Cl)cc1Cl (stereo unspecified) | 844

SMILES | RP-LC retention time [s]
Cc1ccc(-c2cc3c4nnc(SCC(=O)Nc5ccc(Cl)cc5)n4ccn3n2)cc1C | 1080
CC(=O)N1c2ccc(S(=O)(=O)N3CCCCCC3)cc2CC1C(=O)NCc1ccc(F)cc1 (stereo unspecified) | 890
CC(C)N1C(=O)c2cccnc2Sc2cc(NC(=O)Cc3ccc(F)cc3)ccc21 | 867
O=C(NC1CC1)C1CCCN(c2ccc3cc(S(=O)(=O)N4CCCCC4)ccc3n2)C1 (stereo unspecified) | 683
Cc1ccc(C)c(NC(=O)Cn2cnc(-c3noc(-c4ccncc4)n3)c2)c1 | 687
O=C(Nc1ccc2ncccc2c1)Nc1ccc2ncccc2c1 | 604
O=C1/C(=C/c2cc(Br)cc3c2OCOC3)Oc2cc(OC(=O)C3CC3)ccc21 | 1200
CC1CCN(c2nccnc2Oc2ccc(C(=O)Nc3ccc4c(c3)OCCO4)cc2)CC1 | 1080
CC1=NS(=O)(=O)N(C)C=C1C(=O)OCc1nc(-c2cccc(Cl)c2)no1 | 1010
CC(=O)c1ccc(NC(=O)c2c[nH]c3ncccc23)cc1 | 652
O=C(N[C@H]1C[C@@H]2C[C@H]1CN2C(=O)NCCc1ccccc1)c1ccccc1 | 734
CCOC(=O)c1nn(-c2ccc(C)cc2)c(=O)cc1NC(=O)c1cc(Cl)ccc1OC | 1140
O=C(C1=NN(Cc2ccccc2F)c2ccc(Cl)cc2S1(=O)=O)N1CCOCC1 | 875
CC(C)(C)NC(=O)NC1CCN(C(=O)C2CCCC2)C1 (stereo unspecified) | 678
Cc1ccc(NC(=O)Nc2ccccc2C(N)=O)cc1 | 815
Cc1ccccc1CNC(=O)CN1C(=O)CSc2cccn2-c2ccccc21 | 916
CCNC(=O)C1CCCN(c2nc3ncn(CC(=O)Nc4ccc(C)c(Cl)c4)c(=O)c3s2)C1 (stereo unspecified) | 738
Cc1[nH]c(C)c(S(=O)(=O)N2CCC(C(=O)NC3CCCCC3)CC2)c1C(=O)N1CCCC1 | 676
O=C1NC(=O)c2cc(Nc3ccccc3)c(Nc3ccccc3)cc21 | 1040
Cc1cccc(CNC(=O)Cn2c(C)cc(-c3nnc(-c4ccccc4)o3)c2C)c1 | 921
O=C(Nc1nnc(SCc2ccccn2)s1)C1CC(=O)N(c2ccc(F)cc2)C1 (stereo unspecified) | 617
CCSc1ccc(-n2ncc(C(=O)NC3CC3)c2C)nn1 | 722

More lines, now with the values ahead:

RP-LC retention time [s] | SMILES
649 | COc1ccc(N2CC(CNC(=O)C3CCCC3)OC2=O)cc1OC (stereo unspecified)
540 | COCCN1CC(CO)C2(CCN(Cc3ccc(OC)cc3OC)CC2)C1 (stereo unspecified)
712 | COc1cc(OC)c(NC(=O)C2CC(=O)N(c3cccc(NC(C)=O)c3)C2)cc1Cl (stereo unspecified)
719 | O=C(CCc1c[nH]c2ccccc12)N1CC(n2cc(COCC3CC3)nn2)C1
654 | COc1ccc(C2(C(=O)N3CCC(Cc4ncc(C)n4CC4CC4)C3)CC2)cc1 (stereo unspecified)
758 | COc1cccc(N2CCN(S(=O)(=O)c3cc4[nH]c(=O)[nH]c4cc3C)CC2)c1
681 | COc1ccccc1CNC(=O)Cn1cc(C(=O)N2CCCC2)c(=O)c2ccc(C)nc21
526 | Oc1ccc(Br)cc1CN1CCN(c2cc(-c3ccncc3)[nH]n2)CC1
810 | CCN1c2ccc(C)cc2C(=O)NC12CCN(C(=O)c1ccc(OC)cc1)CC2
701 | Cn1cc(-c2ccccc2)cc1C(=O)N1CCN(C2CCCCC2)CC1
616 | COc1cccc(NC(=O)N2CCN(c3nc4ccccc4n3C)CC2)c1
900 | CCCN1C(=O)c2c(C(=O)NCCc3ccccc3C)ncn2CC1(C)C(=O)NCCC(C)C (stereo unspecified)
731 | COCCNC(=O)C(C)Sc1ccc(=O)n(-c2ccc(C)c(Cl)c2)n1 (stereo unspecified)
785 | COc1cccc(Cn2c(=O)c3ccnn3c3ccc(C(=O)O)cc32)c1
677 | CCN(CC)CCCNC(=O)C1CCCN(c2ncc(-c3cccc(F)c3)cn2)C1 (stereo unspecified)
615 | COc1ccc(OC)c(S(=O)(=O)N2CCCC(C(=O)NCc3ccccn3)C2)c1 (stereo unspecified)
960 | CCCCCNC(=O)C1CCCN(S(=O)(=O)c2cc(Cl)ccc2OC)C1 (stereo unspecified)
726 | Cc1cccc(CN2CC=C(C(=O)N3CCN(c4ccccc4C)CC3)CC2)c1
623 | CCOC(=O)CCNC(=O)N1CCCN(C)c2ccccc21
973 | CCCn1c(=O)c2c(nc3n2CCCCN3c2ccc(OCC)cc2)n(C)c1=O
842 | Cc1ccc(C)c(CNC(=O)c2cc3n(n2)CC(C)(C(=O)NCc2ccc(F)cc2)N(C)C3=O)c1 (stereo unspecified)
912 | COc1ccc(CNC(=O)C2(C)CCN(S(=O)(=O)c3c(C)cc(C)cc3C)CC2)cc1
